Results from patent US20180009764A1, “METHOD FOR TREATING MACROPHAGE MIGRATION INHIBITORY FACTOR (MIF)-IMPLICATED DISEASES AND CONDITIONS WITH IODO PYRIMIDINE DERIVATIVES” (UNIVERSITY OF LOUISVILLE RESEARCH FOUNDATION, INC., priority 2009, published 2018).

Legend:
Caco-2 monolayers = assay: Caco-2 cell permeability and transport; assay type: in vitro ADME; parameters: Caco-2 Permeability Papp B-A / Caco-2 Permeability Papp A-B: unit not given here; conditions: for Caco-2 Permeability Papp A-B: apical-to-basolateral
Procedure: (§1) Cell permeability and transport mechanisms in Caco-2 and MDR1-MDCK monolayers experiments were performed in triplicate in the apical-to-basolateral and basolateral-to-apical direction using […]® wells containing either Caco-2 or MDR1-MDCK monolayers. A modified Hanks buffer pH 7.4 was used in both reservoir and receiver wells with the addition of 1% BSA in the receiver side. Confluent monolayers were used and their integrity was verified using reference compounds (Atenolol as a low permeability reference compound and Propanolol as a high permeability reference compound). A sample in the basolateral and apical sides was taken after 2 hours and the concentration measured by LC/MS-MS.

MDR1-MDCK monolayers = assay: MDR1-MDCK cell permeability and transport; assay type: in vitro ADME; conditions: for Efflux: class in words
Procedure: as §1

Du 145 = assay: Inhibition of tumor cells proliferation (CellTiter Glo); assay type: cell-based; conditions: Homo sapiens, 72 hours
Procedure: Inhibition of the proliferation of tumor cells was investigated in vitro in several tumor cell lines. Cells of the desired tumor cell line were plated at 2×10^5 cells/ml in 96 well plates. Twice the indicated concentrations of the compounds of the invention were added to cells the following day in an equal volume of media. 72 hours later, cells were lysed and subjected to ATP determination using the CellTiter Glo-Luminescent Cell Viability Assay kit (Promega, Madison, Wis.). Experiments were done in triplicate. Results for the inhibition of cells proliferation are reported as IC50 (the concentration leading to a 50% inhibition of proliferation of the cell population) and are listed in Table 6. FIGS. 3 and 4 show bar graphs comparing the IC50s of specific embodiments of compounds of the invention across multiple tumor cell lines.

pancreatic tumor model = assay: Efficacy study in a pancreatic tumor model; assay type: in vivo; conditions: daily 40 mg/kg IP; for Survival: FIG. 10
Procedure: The activity of the compounds of the invention was investigated in a pancreatic tumor model using an experiment similar to the one described in EXAMPLE 69. Compounds ACT-MIF-002 and ACT-MIF-003 were dosed daily at 40 mg/kg via IP administration.
Lumbar regions of the control and treated groups were excised and sent for histopathological evaluation. […] In the example shown in FIG. 11, bone marrow of the vehicle treated mice is consistent with bone metastases (1) with evidence of surrounding skeletal muscle metastases from invading marrow tumor cells (2 and 3).

in vitro = in vitro ADME; conditions: human, plasma, Human Plasma Protein Binding % Bound
Source text: Plasma protein binding was ascertained using dialysis equilibrium methods known in the art.

[1] = Pharmacokinetics parameters in rats; assay type: in vivo; conditions: rat, plasma; for Vd: intravenous, read-out: Volume of distribution; for clearance: iv, after i.v. administration; for half-life: read-out: Terminal plasma half-life (converted)
Procedure: The pharmacokinetic parameters of several compounds were investigated in rodents. Both oral and iv administration were investigated in rats. Blood samples were collected over time; plasma was analyzed using an LC/MS-MS method. Pharmacokinetic parameters were calculated using Win-NonLin. Terminal plasma half-lives were 7.10 hr for ACT-MIF-001, 1.66 hr for ACT-MIF-002, and 1.50 hr for ACT-MIF-003. […] The volume of distribution values were 72666 mL/kg for ACT-MIF-001, 2118 mL/kg for ACT-MIF-002, and 1926 mL/kg for ACT-MIF-003.

[2] = Microsomal stability in human liver microsomes; assay type: in vitro ADME; conditions: both, human, microsomes, pH 7.4
Procedure: Stability in human liver microsomes was tested over […] at 37° C. using pooled mixed gender human liver microsomes. Liver microsomes were prepared at 1.0 mg/ml of microsomal protein in a 100 mM potassium phosphate pH 7.4 buffer with 1 mM NADPH. The media was incubated at 37° C. with the compound in solution in DMSO. The concentration of the compound was followed by LC/MS-MS as a function of time. Samples were assayed at t=0, 30, 60 and 120 minutes. Testosterone was used as a positive control. The same experiment was performed with mouse liver microsomes instead of human liver microsomes.

[3] = tested on: Chick Chorioallantoic Membrane (CAM); assay: Chick chorioallantoic membrane (CAM) assay, o ring; assay type: in vivo; conditions: for Blood Vessel Density: o ring; for Anti-angiogenic properties: CAM assay, in words
Procedure: 8 groups with 10 embryos in each group were used in the experiment described below. Fresh fertile eggs were incubated for 3 days in a standard egg incubator at 37° C. for 3 days. On Day 3, eggs were cracked under sterile conditions and embryos were placed into 20×100 mm plastic plates and cultivated at 37° C. in an embryo incubator with a water reservoir on the bottom shelf. Air was continuously bubbled into the water reservoir using a small pump so that the humidity in the incubator is kept constant. On Day 6, a sterile silicon “o” ring was placed on each CAM and test compound dissolved in 0.5% methylcellulose was placed into each “o” ring in a sterile hood. Paclitaxel was used as a positive control. Embryos were returned to the incubator after addition of test material. Control embryos received 10 μL of vehicle alone. On Day 8, embryos were removed from the incubator and kept at room temperature while blood vessel density were determined under each “o” ring using an image capturing system at a magnification of 160×. The blood vessel density was measured using an angiogenesis scoring system in that arithmetic numbers 0 to 5 (or exponential numbers 1 to 32) are used to indicate number of blood vessels present at the treatment sites on the CAM. Number 5 represents the highest density and 0 represents no angiogenesis. The percent of inhibition at each dosing site was calculated using the score recorded for that site divided by the mean score obtained from the appropriate control samples for each individual experiment. The percent of inhibition for each dose of a given compound was calculated by pooling all results obtained for that dose from 8-10 embryos.

MIF = biological target: T1, MIF (Homo sapiens, UniProt P14174); assay: MIF cell lysate enzymatic inhibition; assay type: biochemical; conditions: cell lysates
T1 construct: the enzymatic activity of MIF present in cell lysates; endogenous in cells
T1 sequence (P14174 2-115 limits assumed): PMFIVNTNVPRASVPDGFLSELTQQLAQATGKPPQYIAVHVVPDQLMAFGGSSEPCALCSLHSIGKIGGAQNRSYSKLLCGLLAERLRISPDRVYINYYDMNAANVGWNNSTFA
Procedure: Normal or transformed cell lysates can be used to determine the concentration inhibiting the enzymatic activity of MIF present in cell lysates. Cells are cultured in the appropriate media to the required number of cells, collected, and lysed. Compounds to be characterized are solubilized in DMSO and serial dilutions are performed in order to obtain a range of concentrations including complete and no quantifiable inhibition.

Compound | Caco-2 Permeability Class (Caco-2 monolayers) | Caco-2 Permeability Papp A-B (Caco-2 monolayers; pH 7.4, 2 hours) | Brain penetration classification (MDR1-MDCK monolayers) | P-gp Substrate (MDR1-MDCK monolayers) | Efflux (MDR1-MDCK monolayers) | IC50 (Du 145) | Body weight and clinical signs of toxicity (pancreatic tumor model) | Metastatic tumor burden (pancreatic tumor model) | Survival (pancreatic tumor model) | fraction unbound (in vitro) | Vd [1] | clearance [1] | half-life [1] | Metabolic Stability in Human Microsomes % Remaining ([2]; 0 h) | Metabolic Stability in Human Microsomes % Remaining ([2]; 1 h) | Blood Vessel Density ([3]; 0.3 nM per CAM) | Blood Vessel Density ([3]; 3 nM per CAM) | Blood Vessel Density ([3]; 30 nM per CAM) | Anti-angiogenic properties [3] | IC50 (MIF) | other results
COc1ccc(-c2cc(I)ncn2)c(F)c1 [ACT-MIF-002, 4-Iodo-6-(2-fluoro-4-methoxyphenyl)pyrimidine] | Low | 0.2 | Low | No | High | 24.9 µM | no body weight loss and no clinical signs of toxicity | limited the metastatic tumor burden | significant impact on survival | 0.021 | 2.12 L/kg | 132 mL/min/kg | 1.66 h | 100% | <2% | 9.4 ± 2.4 | 8.6 ± 2.6 | 4.4 ± 1.3 | high anti-angiogenic properties | 0.07 µM | Caco-2 Efflux (Caco-2 monolayers): 1.7; Bone metastases, histopathology of lumbar region (pancreatic tumor model; FIG. 11): no evidence of bone metastases
Fc1ccccc1-c1cc(I)ncn1 [ACT-MIF-003, 4-Iodo-6-(2-fluorophenyl)pyrimidine] | High | 2.1 | High | No | High | 16.5 µM | no body weight loss and no clinical signs of toxicity | limited the metastatic tumor burden | significant impact on survival | 0.038 | 1.93 L/kg | 197 mL/min/kg | 1.5 h | 100% | 57% | 11.6 ± 1.2 | 4.2 ± 1.2 | 4.1 ± 0.7 | high anti-angiogenic properties | 0.2 µM | Caco-2 Permeability Papp B-A (Caco-2 monolayers; basolateral-to-apical, pH 7.4, 2 hours): 2.6
